{"source": "paper PMC12057357", "about": "“Population pharmacokinetics study on nebulized and intravenous administration of polymyxin B in patients with pneumonia caused by multidrug-resistant gram-negative bacteria” (Antimicrobial Agents and Chemotherapy, 2025)", "key": {"Pseudomonas aeruginosa": {"system": "Pseudomonas aeruginosa", "design": "method as in PMID 28031207", "conditions": "ELF; cited from earlier work"}, "[1]": {"experiment": "Population pharmacokinetic model of PMB in plasma and ELF of patients with MDR-GNB pneumonia", "assay_type": "in vivo, human", "protocol": "This was a single-center, prospective study conducted between January 2022 and October 2024 at Fujian Medical University Union Hospital. […] Patients with severe bronchoconstriction, refractory hypoxemia, pregnancy, or those undergoing continuous renal replacement therapy were excluded.\nIV PMB was administered according to the manufacturer’s instructions: a loading dose of 100–150 mg ([…]) followed by maintenance doses of 40–75 mg every 12 h, with an infusion time of approximately 1 h. The decision to administer PMB and its dosing regimen was made by the medical team. Concurrently, selected patients received nebulized PMB at a dose of 25 mg dissolved in 5 mL of half-normal sterile water for injection every 12 h via vibration mesh nebulizer or jet nebulizer over 15 min. Eligible patients received nebulized PMB for 3 days for the treatment of pneumonia. During nebulization, ventilation was performed at a constant flow, targeting an inspiration-to-expiration ratio of 0.5. The respiratory rate was set at 18 breaths/min; the tidal volume was set at 8 mL/kg; and the positive end-expiratory pressure was set at 6 cmH2O.\nFor all patients, when the PMB concentration in the plasma and lungs reached a steady state (after at least four doses), one to six samples were collected into EDTA tubes at the following time points: 0 h before administration and 1, 2, 4, 6, 8, and 12 h after administration. The plasma and bronchoalveolar lavage (BAL) fluid samples for drug assays were centrifuged at 12,000 rpm for 5 min. The supernatant was then collected and stored at −80°C until analysis.\nELF is obtained through BAL. This procedure involves inserting and wedging a fiberoptic bronchoscope into a subsegment of the middle or lower lung lobe. Before performing BAL, the patient’s CT scan is reviewed to select the affected lung segment for lavage. The lavage is performed at the same location using a 0.9% saline solution. The aspirate from the first lavage is usually collected separately and discarded due to potential severe contamination with cells from the proximal airway. Subsequent recovered aspirates are combined, and their volume is measured and recorded. The remaining volume of BAL fluid is immediately centrifuged to separate the supernatant and the cell pellet. Samples used for measuring urea and drug concentrations in the supernatant are collected and frozen until analysis. The concentration of PMB in ELF can be determined using urea as an endogenous biomarker ([4], [8]). Urea concentration in plasma and ELF is typically the same because urea is […], has a low molecular weight, and can rapidly diffuse to establish equilibrium across the capillary-alveolar membrane. By measuring the urea concentration in both BAL fluid and plasma, the dilution factor can be determined, allowing for the calculation of the actual drug concentration in ELF (Eq.1):\n(1) CELF,PMB=CBAL, PMB×Cplasma,urea /CBAL,urea.\nAs polymyxin B1 and B2 structures, molecular weights, pharmacological activities, and PK properties were […], their plasma concentrations were summed to obtain total PMB concentrations ([24]). Concentrations of PMB were determined by a validated liquid chromatography–tandem mass spectrometry assay with minor modifications ([25]). […] For plasma, intra- and interday accuracies ranged from 80.6% to 114.9%, with a coefficient of variation (CV) of 2.6%–14.8%. For BAL fluid, accuracy ranged from 82.3% to 114.3%, with a CV of 3.4%–13.7%. All sample concentrations exceeded the lower limit of quantification (LLOQ).\nPopPK analyses were conducted using a non-linear mixed-effect modeling program, NONMEM, version 7.5 (Icon Development Solutions, USA). Model development utilized first-order conditional estimation to assess the interaction between patient variability and residual variability. One- or two-compartment structural models were evaluated for both ELF and plasma drug exposure to establish the basic model that best fitted the original data. […]"}, "[2]": {"system": "Pseudomonas aeruginosa (ATCC 27853, PAO1, and FADDI-PA022)", "conditions": "cited from earlier work", "description": "Monte Carlo simulations were used to determine the probability of target attainment (PTA), aiding in the selection of the optimal dosage regimen. According to consensus guidelines, the fAUC/MIC is the most relevant PK/PD index associated with bacterial killing ([11]). In this study, we evaluated the PTA of fAUC/MIC across different dosage regimens in cases of pathogenic infection with varying MIC values to better understand the optimal treatment approach. The preclinical data on PMB are limited, and its in vitro activities are similar to those of colistin ([11], [27]). […] Such high fAUC/MIC ..."}, "[3]": {"system": "Acinetobacter baumannii (ATCC 19606, 248–01-C.248, and N-16870.213)", "conditions": "cited from earlier work"}, "[4]": {"conditions": "plasma; cited from earlier work", "description": "Monte Carlo simulations were used to determine the probability of target attainment (PTA), aiding in the selection of the optimal dosage regimen. According to consensus guidelines, the fAUC/MIC is the most relevant PK/PD index associated with bacterial killing ([11]). In this study, we evaluated the PTA of fAUC/MIC across different dosage regimens in cases of pathogenic infection with varying MIC values to better understand the optimal treatment approach. The preclinical data on PMB are limited, and its in vitro activities are similar to those of colistin ([11], [27]). Consequently, some data ..."}, "[5]": {"conditions": "cited from earlier work", "description": "The issue of dosage adjustments based on renal function has been a contentious topic ..."}, "[6]": {"system": "extensively drug-resistant GNB", "conditions": "cited from earlier work", "protocol": "While an IV loading dose enhances early plasma exposure of PMB, it has minimal impact on early ELF exposure. […] Currently, the dosing regimen for PMB nebulization in clinical practice is predominantly empirical, typically involving doses of 25 or 50 mg administered twice daily ([19][–][21]). In a PK analysis of 105 patients ..."}, "[7]": {"system": "human alveolar epithelial A549 cells", "design": "method as in PMID 34228550, PMID 28416543", "conditions": "cited from earlier work"}, "[8]": {"conditions": "bootstrap median, 1,000 resampled data sets"}}, "note": "Bridge positions count the residues as written; N and C are the ends. Square brackets hold non-standard residues; d marks the D form. Peptide text beside a SMILES is read from it. * marks the point of attachment. X1 = CC[C@H](C)CCCCC(=O)*; Dab = NCC[C@H](N)C(=O)O", "data": [{"molecule": "colistin", "values": [{"measurement": "fAUCELF/MIC targets", "setting": "Pseudomonas aeruginosa", "value": "684–1,050"}]}, {"molecule": "CC[C@H](C)CCCCC(=O)N[C@@H](CCN)C(=O)N[C@H](C(=O)N[C@@H](CCN)C(=O)N[C@H]1CCNC(=O)[C@H]([C@@H](C)O)NC(=O)[C@H](CCN)NC(=O)[C@H](CCN)NC(=O)[C@H](CC(C)C)NC(=O)[C@@H](Cc2ccccc2)NC(=O)[C@H](CCN)NC1=O)[C@@H](C)O", "note": "[PMB, Polymyxin B] (X1-[Dab]T[Dab][Dab][Dab][dF]L[Dab][Dab]T; lactam 4-C)", "values": [{"measurement": "AGE on V3 (covariate effect)", "setting": "[1]; [8]", "value": 1.28}, {"measurement": "ALB on CL3 (covariate effect)", "setting": "[1]; [8]", "value": "−0.894"}, {"measurement": "CL1, central compartment clearance of plasma", "setting": "[1]; [8]", "value": 1.39, "unit": "L/h"}, {"measurement": "CL2, intercompartmental clearance of plasma", "setting": "[1]; [8]", "value": 13.1, "unit": "L/h"}, {"measurement": "CL3, central compartment clearance of ELF", "setting": "[1]; [8]", "value": 0.186, "unit": "L/h"}, {"measurement": "CL4, intercompartmental clearance of ELF", "setting": "[1]; [8]", "value": 3.44, "unit": "L/h"}, {"measurement": "F, bioavailability of nebulization", "setting": "[1]; [8]", "value": 0.556}, {"measurement": "Q, intercompartmental clearance between compartments 1 and 3", "setting": "[1]; [8]", "value": 0.03, "unit": "L/h"}, {"measurement": "V1, central compartment distribution volume of plasma", "setting": "[1]; [8]", "value": 27.59, "unit": "L"}, {"measurement": "V2, intercompartmental (peripheral) distribution volume of plasma", "setting": "[1]; [8]", "value": 17.11, "unit": "L"}, {"measurement": "V3, central compartment distribution volume of ELF", "setting": "[1]; [8]", "value": 0.896, "unit": "L"}, {"measurement": "V4, intercompartmental (peripheral) distribution volume of ELF", "setting": "[1]; [8]", "value": 4.33, "unit": "L"}, {"measurement": "AUC24h, ELF", "setting": "[1]; epithelial lining fluid, 76 patients, median (interquartile range), nebulized PMB 25 mg q12h alone or with IV PMB, LC-MS/MS, urea-corrected BAL", "value": "52.5 (35.3–102.8) mg·h/L"}, {"measurement": "AGE on V3 (covariate effect)", "setting": "[1]; final PopPK model estimate", "value": 1.28}, {"measurement": "ALB on CL3 (covariate effect)", "setting": "[1]; final PopPK model estimate", "value": "−0.893"}, {"measurement": "CL2, intercompartmental clearance of plasma", "setting": "[1]; final PopPK model estimate", "value": 13.11, "unit": "L/h"}, {"measurement": "CL3, central compartment clearance of ELF", "setting": "[1]; final PopPK model estimate", "value": 0.186, "unit": "L/h"}, {"measurement": "CL4, intercompartmental clearance of ELF", "setting": "[1]; final PopPK model estimate", "value": 3.44, "unit": "L/h"}, {"measurement": "F, bioavailability of nebulization (fraction of drug reaching the lungs)", "setting": "[1]; final PopPK model estimate", "value": 0.557}, {"measurement": "Q, intercompartmental clearance between compartments 1 and 3 (plasma and ELF)", "setting": "[1]; final PopPK model estimate", "value": 0.03, "unit": "L/h"}, {"measurement": "V1, central compartment distribution volume of plasma", "setting": "[1]; final PopPK model estimate", "value": 27.6, "unit": "L"}, {"measurement": "V2, intercompartmental (peripheral) distribution volume of plasma", "setting": "[1]; final PopPK model estimate", "value": 17.1, "unit": "L"}, {"measurement": "V3, central compartment distribution volume of ELF", "setting": "[1]; final PopPK model estimate", "value": 0.896, "unit": "L"}, {"measurement": "V4, intercompartmental (peripheral) distribution volume of ELF", "setting": "[1]; final PopPK model estimate", "value": 4.35, "unit": "L"}, {"measurement": "clearance", "setting": "[1]; human, plasma, final PopPK model estimate, NONMEM, 76 patients, steady state, read-out: CL1, central compartment clearance of plasma (converted)", "value": 23.2, "unit": "mL/min"}, {"measurement": "AUC24h, plasma", "setting": "[1]; plasma, median (interquartile range), nebulized PMB alone or with IV PMB, LC-MS/MS", "value": "35.0 (22.0–54.2) mg·h/L"}, {"measurement": "AUC/MIC targets in ELF associated with antibacterial activity", "setting": "[2]", "value": "1,326 to 1,506"}, {"measurement": "AUC/MIC targets in ELF associated with antibacterial activity", "setting": "[3]", "value": "326 to 989"}, {"measurement": "unbound fraction", "setting": "[4]", "value": 0.42}, {"measurement": "average urine recovery rate", "setting": "[5]", "value": 23.56, "unit": "%"}, {"measurement": "CL1", "setting": "[5]; range across previous PMB two-compartment models", "value": "1.19 to 2.63", "unit": "L/h"}, {"measurement": "CL2", "setting": "[5]; range across previous studies", "value": "1.98 to 13.83", "unit": "L/h"}, {"measurement": "V1", "setting": "[5]; range across previous studies", "value": "6.35 to 33.77", "unit": "L"}, {"measurement": "V2", "setting": "[5]; range across previous studies", "value": "7.92 to 78.2", "unit": "L"}, {"measurement": "urinary recovery rate", "setting": "[5]; range, ref 39 (Sandri et al.)", "value": "0.98% to 17.4%"}, {"measurement": "bacterial clearance time, inhalation group vs IV group", "setting": "[6]; P = 0.002", "value": "significantly shorter"}, {"measurement": "risk of acute kidney injury, inhalation group vs IV group", "setting": "[6]; P = 0.025", "value": "trend toward a reduced risk"}, {"measurement": "effect on human alveolar epithelial A549 cells", "setting": "[7]", "value": "disrupt redox balance, mitochondrial beta-oxidation, and membrane lipid biosynthesis"}]}]}
